Assay results published in ChEMBL document CHEMBL1201862, “PubChem BioAssay data set” (2004).
Activity calls are given as the source filed them.

Experiments:
[1] = target: Sphingosine 1-phosphate receptor 2 (Homo sapiens, UniProt O95136); assay: Dose Response Cell Based Assay for Antagonists of the S1P2 Receptor. [Related pubchem assays: 856, 736 ]; type: functional
Tumor necrosis factor [2] = target: T1, Tumor necrosis factor (Homo sapiens, UniProt P01375); assay: TNFa-triggered NF-kB activation inhibitors, SAR follow-up, cell-based, revised (AID 2337); type: functional
[3] = target: T2, Nucleotide-binding oligomerization domain-containing protein 1 (Homo sapiens, UniProt Q9Y239); assay: NOD1 signaling inhibitors, SAR follow-up, revised (AID 2333); type: functional
T2 sequence (Q9Y239 whole entry): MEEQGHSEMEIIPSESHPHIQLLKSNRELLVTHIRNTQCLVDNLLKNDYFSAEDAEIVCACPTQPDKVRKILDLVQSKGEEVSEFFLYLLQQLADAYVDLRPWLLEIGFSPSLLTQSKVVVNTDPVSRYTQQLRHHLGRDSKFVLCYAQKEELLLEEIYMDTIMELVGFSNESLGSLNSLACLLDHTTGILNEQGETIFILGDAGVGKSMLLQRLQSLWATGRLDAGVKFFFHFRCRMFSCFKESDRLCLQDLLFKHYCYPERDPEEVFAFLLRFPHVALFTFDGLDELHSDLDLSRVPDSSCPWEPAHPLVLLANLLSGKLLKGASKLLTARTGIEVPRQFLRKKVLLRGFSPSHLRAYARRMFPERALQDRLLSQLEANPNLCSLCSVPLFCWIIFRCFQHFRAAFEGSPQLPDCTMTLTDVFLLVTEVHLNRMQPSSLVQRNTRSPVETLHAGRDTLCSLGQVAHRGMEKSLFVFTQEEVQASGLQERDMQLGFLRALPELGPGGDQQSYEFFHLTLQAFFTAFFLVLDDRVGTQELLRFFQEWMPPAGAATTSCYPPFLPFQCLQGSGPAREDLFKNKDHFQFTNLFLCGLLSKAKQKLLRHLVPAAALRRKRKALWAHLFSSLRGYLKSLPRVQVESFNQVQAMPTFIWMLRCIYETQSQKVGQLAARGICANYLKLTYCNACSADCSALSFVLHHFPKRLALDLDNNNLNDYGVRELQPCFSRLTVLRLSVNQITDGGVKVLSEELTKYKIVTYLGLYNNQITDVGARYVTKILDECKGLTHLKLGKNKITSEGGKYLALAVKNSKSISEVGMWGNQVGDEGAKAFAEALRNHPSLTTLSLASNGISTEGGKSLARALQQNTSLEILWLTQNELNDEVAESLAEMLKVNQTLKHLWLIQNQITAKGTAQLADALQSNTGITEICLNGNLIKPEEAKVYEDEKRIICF

[4] = cytotoxicity in HEK-293T cells, dose response, cytotoxicity control for TCR NF-kB inhibitor project, luminescence, T-cell screen hits (AID 489026); type: functional, cell-based;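 note: cells exposed to compound about 14 hours before the viability readout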
Cytochrome P450 3A4 = Cytochrome P450 3A4 (Homo sapiens, UniProt P08684);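 note: CYP3A4 tested as one member of a cytochrome P450 panel screen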
HEK293 [5] = assay: cells; details: Homo sapiens
[6] = inhibitors of intracellular T. cruzi replication, confirmation, NIH3T3 host cells, beta-gal luminescence (AID 2044); type: functional, cell-based;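 note: intracellular parasites grown in NIH/3T3 mouse fibroblasts as host cells; luminescent beta-galactosidase reporter signal from transgenic T. cruzi replicating inside host cells; inhibitors lower the luminescence signal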
[7] = cytotoxicity toward NIH3T3 fibroblasts, dose response, counter-screen, cell-based, ATP luminescence, mouse fibroblasts (AID 2010); type: functional;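 note: cells exposed to compound for about 90 hours before reading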
CAAX prenyl protease 1 = CAAX prenyl protease 1 (Saccharomyces cerevisiae S288c, UniProt P47154); assay: Ste24 protease inhibitors, dose response, biochemical, S. cerevisiae, plate reader, cherry-pick (AID 488815)
CAAX prenyl protease 2 = CAAX prenyl protease 2 (Homo sapiens, UniProt Q9Y256); assay: human Rce1 protease inhibitors, dose response, biochemical, yeast membranes, quenched-peptide fluorescence, cherry-pick (AID 588849)
[8] = ADAM10 inhibitors, peptide cleavage, dose response, biochemical, QFRET (AID 743254);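 note: ADAM10 enzyme with the DM2 quenched FRET peptide as substrate; EDANS fluorescence gain as the protease cuts the substrate; inhibitor potency against ADAM10 proteolytic activity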
[9] = target: Disintegrin and metalloproteinase domain-containing protein 17 (Homo sapiens, UniProt P78536); assay: ADAM17 protease inhibitors, dose response, counter-screen for ADAM10 exosite inhibitor project, biochemical, quenched FRET substrate (AID 743253)
[10] = target: T3, G-protein coupled receptor 35 (Homo sapiens, UniProt Q9HC97); assay: GPR35 antagonists blocking zaprinast-driven arrestin recruitment, primary screen, imaging, U2OS, beta-arrestin-GFP, zaprinast agonist (AID 2058); type: functional;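 note: antagonist potency meaning inhibition of agonist-induced arrestin redistribution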
[11] = inhibitors of firefly luciferase expression or activity, dose response, H4 neuroglioma cells, luminescence (AID 1990); type: functional, cell-based
[12] = target: T3, G-protein coupled receptor 35; assay: SAR Analysis for the identification of Selective Antagonists of ERK1/2 Activity in GPR35-Overexpressing U2OS Cells. [Related pubchem assays: 2079, 2058 ]; type: functional, cell-based
[13] = tested on: Streptococcus sp. 'group A'; assay: growth inhibition of control SK(-) GAS strain, dose response, counter-screen for streptokinase expression inhibitor project, luminescence, kanamycin, BacTiterGlo, confirmation (AID 1900); type: functional, organism-based
[14] = Luminescence Cell-Based Dose Response HTS to Identify Inhibitors of 5'UTR Stem-Loop Driven Prion Protein mRNA Translation in H4 Neuroglioblastoma Cells. [Related pubchem assays: 1827 (Project Summary), 1813 (Primary HTS)]; type: functional
[15] = inhibitors of SNCA 5'UTR-driven reporter translation, confirmation, H4 neuroglioma cells, luminescence (AID 1988); type: functional, cell-based
Streptokinase A = target: T4, Streptokinase A (Streptococcus pyogenes serotype M1, UniProt P10520); assay: S. pyogenes streptokinase expression inhibitors, potency, dose response, plasminogen activation absorbance, OD405 (AID 1914); type: functional, Streptococcus pyogenes M1 GAS;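 note: secreted streptokinase activity via plasminogen activation per viability signal from cell pellet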
T4 sequence (P10520 whole entry): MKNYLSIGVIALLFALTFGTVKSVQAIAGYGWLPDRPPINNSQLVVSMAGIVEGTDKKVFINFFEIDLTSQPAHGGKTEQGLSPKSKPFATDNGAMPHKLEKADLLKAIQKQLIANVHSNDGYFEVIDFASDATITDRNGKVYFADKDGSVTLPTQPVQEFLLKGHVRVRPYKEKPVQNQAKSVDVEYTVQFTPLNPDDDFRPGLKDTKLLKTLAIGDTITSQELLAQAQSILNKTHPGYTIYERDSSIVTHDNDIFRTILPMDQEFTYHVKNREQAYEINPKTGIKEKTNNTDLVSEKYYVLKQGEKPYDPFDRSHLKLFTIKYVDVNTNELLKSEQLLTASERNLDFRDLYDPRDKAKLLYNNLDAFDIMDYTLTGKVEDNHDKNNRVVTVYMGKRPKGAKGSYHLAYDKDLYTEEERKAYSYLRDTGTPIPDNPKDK

Streptococcus = assay: Group A Streptococcus viability loss, dose response, counter-screen for streptokinase expression inhibitor project, luminescence, BacTiterGlo (AID 1915); type: functional, organism-based;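 note: potency for reduction of bacterial viability or growth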
[16] = target: Tyrosine-protein phosphatase non-receptor type 12 (Homo sapiens, UniProt Q05209); assay: SAR Selectivity Analysis of small molecule inhibitors of PEST using pCAP in a fluorescence assay. [Related pubchem assays (depositor defined):AID1779, AID1784, AID2135]; type: functional
[17] = target: T5, Tyrosine-protein phosphatase non-receptor type 22 (Homo sapiens, UniProt Q9Y2R2); assay: SAR LYP1 Fluorescent Assay using OMFP substrate for In Vitro dose response studies - Set 3. [Related pubchem assays (depositor defined):AID1779, AID1784, AID2140, AID2686]; type: functional
T5 sequence (Q9Y2R2 whole entry): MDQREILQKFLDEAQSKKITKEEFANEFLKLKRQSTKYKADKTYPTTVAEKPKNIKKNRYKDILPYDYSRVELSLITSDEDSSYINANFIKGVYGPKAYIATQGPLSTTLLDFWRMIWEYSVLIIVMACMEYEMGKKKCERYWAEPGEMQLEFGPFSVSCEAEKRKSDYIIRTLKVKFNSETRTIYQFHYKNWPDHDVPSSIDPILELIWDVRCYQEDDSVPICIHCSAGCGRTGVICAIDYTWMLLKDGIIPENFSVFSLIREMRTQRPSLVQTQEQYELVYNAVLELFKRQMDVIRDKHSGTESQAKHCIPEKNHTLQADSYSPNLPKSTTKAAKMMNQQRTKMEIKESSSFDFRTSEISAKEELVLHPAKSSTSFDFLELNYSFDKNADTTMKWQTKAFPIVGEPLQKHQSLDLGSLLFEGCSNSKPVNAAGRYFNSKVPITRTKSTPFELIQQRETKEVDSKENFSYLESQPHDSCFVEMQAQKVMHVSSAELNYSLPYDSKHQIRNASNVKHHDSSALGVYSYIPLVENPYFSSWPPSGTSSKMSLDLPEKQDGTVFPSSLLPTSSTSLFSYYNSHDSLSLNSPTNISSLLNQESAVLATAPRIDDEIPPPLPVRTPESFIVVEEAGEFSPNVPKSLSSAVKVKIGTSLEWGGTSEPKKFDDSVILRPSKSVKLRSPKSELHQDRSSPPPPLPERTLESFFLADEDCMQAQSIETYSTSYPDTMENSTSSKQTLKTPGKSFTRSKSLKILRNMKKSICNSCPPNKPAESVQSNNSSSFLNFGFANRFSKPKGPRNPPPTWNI

[18] = target: T6, Tyrosine-protein phosphatase non-receptor type 7 (Homo sapiens, UniProt P35236); assay: HePTP (PTPN7) phosphatase inhibitor potency, SAR follow-up, biochemical, set 2 (AID 449736); type: functional
T6 sequence (P35236 whole entry): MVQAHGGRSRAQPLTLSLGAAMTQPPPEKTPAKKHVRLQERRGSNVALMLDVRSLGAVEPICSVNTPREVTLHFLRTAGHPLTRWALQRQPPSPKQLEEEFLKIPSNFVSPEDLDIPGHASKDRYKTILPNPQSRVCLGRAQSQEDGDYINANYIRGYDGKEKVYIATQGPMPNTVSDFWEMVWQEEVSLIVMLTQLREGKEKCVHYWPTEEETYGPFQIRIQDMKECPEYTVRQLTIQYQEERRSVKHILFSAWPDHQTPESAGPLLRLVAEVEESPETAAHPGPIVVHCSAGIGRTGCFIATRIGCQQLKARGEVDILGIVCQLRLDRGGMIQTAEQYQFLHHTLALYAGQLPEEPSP

[19] = target: G-protein coupled receptor 55 (Homo sapiens, UniProt Q9Y2T6); assay: GPR55 antagonists, SAR follow-up, counter-screen for GPR35 antagonist project, imaging, image-based (AID 2397); type: functional
Cytochrome P450 2C19 = Cytochrome P450 2C19 (Homo sapiens, UniProt P33261); assay: Cytochrome panel assay with activity outcomes. Panel member name: p450-cyp2c19 Compounds with AC50 equal or less than 10 uM are considered active; type: functional
Cytochrome P450 2D6 = Cytochrome P450 2D6 (Homo sapiens, UniProt P10635);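 note: CYP2D6 member of a cytochrome P450 panel assay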
[20] = target: T2, Nucleotide-binding oligomerization domain-containing protein 1; assay: SAR analysis of compounds that inhibit NOD1 - Set 3. [Related pubchem assays (depositor defined):AID1566, AID1575, AID1578, AID1849, AID1852, AID2333, AID2335, AID2466]; type: functional
Tumor necrosis factor [21] = target: T1, Tumor necrosis factor; assay: TNFa-triggered NF-kB activation inhibitors, SAR follow-up, cell-based, set 3 (AID 2801); type: functional
HEK293 [22] = assay: SAR analysis of compounds that are cytotoxic to HEK293 - Set 3. [Related pubchem assays (depositor defined):AID1575, AID1578, AID1848, AID1849, AID2001, AID2333, AID2334, AID2335, AID2337, AID2469]; type: functional, cell-based; details: Homo sapiens
[23] = target: Nucleotide-binding oligomerization domain-containing protein 2 (Homo sapiens, UniProt Q9HC29); assay: NOD2 signaling inhibitors, analog potency, SAR follow-up, cell-based, set 3 (AID 2799); type: functional
[24] = target: Lysine-specific demethylase 4A (Homo sapiens, UniProt O75164); assay: JMJD2A histone demethylase inhibitors, dose response, selectivity assay for GASC-1 inhibitor project, biochemical, DELFIA europium, cherry-picked samples (AID 488840)
[25] = Luminescence Cell-Based Dose Retest to Confirm Inhibitors of Cancer Stem Cells. [Related pubchem assays (depositor defined):AID2717, AID2721]; type: functional; details: Homo sapiens
[26] = cytotoxicity in HMLE control line with eGFP shRNA, dose response, counter-screen for HMLE_sh_ECad selective toxicity project, cell-based, HMLE_sh_eGFP, luminescence (AID 463074); type: functional, Homo sapiens;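 note: HMLE human mammary epithelial cells expressing control shRNA against eGFP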

T1 sequence (P01375 whole entry, the tested form may be a part): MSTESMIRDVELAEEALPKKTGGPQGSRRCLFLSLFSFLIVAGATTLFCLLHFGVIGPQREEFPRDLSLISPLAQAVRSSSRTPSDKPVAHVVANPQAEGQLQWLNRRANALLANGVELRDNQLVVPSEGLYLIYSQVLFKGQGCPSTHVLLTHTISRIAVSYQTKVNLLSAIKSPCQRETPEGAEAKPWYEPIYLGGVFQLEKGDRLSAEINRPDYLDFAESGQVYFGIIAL
T3 sequence (Q9HC97 whole entry): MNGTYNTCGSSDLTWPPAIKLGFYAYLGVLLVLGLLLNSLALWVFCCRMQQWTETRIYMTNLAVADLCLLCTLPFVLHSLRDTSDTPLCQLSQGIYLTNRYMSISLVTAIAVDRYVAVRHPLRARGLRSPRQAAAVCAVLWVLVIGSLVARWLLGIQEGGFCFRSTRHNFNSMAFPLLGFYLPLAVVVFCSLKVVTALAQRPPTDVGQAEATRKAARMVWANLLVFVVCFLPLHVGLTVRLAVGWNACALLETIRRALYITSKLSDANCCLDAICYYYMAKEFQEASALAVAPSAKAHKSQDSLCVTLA
Sequence of Sphingosine 1-phosphate receptor 2 (O95136 whole entry): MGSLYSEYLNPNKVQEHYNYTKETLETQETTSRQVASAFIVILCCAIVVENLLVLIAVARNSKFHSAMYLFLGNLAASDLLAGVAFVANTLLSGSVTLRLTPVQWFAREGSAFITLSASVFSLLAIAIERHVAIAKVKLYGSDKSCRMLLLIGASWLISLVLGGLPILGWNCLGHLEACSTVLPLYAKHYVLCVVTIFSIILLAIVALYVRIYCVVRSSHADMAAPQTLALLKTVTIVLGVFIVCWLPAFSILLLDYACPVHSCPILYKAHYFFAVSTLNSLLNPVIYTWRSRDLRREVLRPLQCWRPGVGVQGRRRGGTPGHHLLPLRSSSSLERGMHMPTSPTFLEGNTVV
Sequence of Cytochrome P450 2D6 (P10635 whole entry, the tested form may be a part): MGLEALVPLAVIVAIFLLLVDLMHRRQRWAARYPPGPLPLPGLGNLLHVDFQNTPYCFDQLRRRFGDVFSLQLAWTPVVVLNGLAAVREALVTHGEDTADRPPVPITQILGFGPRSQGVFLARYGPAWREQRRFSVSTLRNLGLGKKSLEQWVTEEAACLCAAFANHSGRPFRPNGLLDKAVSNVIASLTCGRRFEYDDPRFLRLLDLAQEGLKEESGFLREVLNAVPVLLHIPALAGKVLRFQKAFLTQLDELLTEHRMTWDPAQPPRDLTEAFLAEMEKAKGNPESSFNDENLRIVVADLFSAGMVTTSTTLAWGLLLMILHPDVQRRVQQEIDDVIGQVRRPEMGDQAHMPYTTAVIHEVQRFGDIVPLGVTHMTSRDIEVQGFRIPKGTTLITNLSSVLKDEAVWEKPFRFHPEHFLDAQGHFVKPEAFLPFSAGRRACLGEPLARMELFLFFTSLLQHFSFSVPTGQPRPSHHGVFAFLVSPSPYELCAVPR
Sequence of Lysine-specific demethylase 4A (O75164 whole entry): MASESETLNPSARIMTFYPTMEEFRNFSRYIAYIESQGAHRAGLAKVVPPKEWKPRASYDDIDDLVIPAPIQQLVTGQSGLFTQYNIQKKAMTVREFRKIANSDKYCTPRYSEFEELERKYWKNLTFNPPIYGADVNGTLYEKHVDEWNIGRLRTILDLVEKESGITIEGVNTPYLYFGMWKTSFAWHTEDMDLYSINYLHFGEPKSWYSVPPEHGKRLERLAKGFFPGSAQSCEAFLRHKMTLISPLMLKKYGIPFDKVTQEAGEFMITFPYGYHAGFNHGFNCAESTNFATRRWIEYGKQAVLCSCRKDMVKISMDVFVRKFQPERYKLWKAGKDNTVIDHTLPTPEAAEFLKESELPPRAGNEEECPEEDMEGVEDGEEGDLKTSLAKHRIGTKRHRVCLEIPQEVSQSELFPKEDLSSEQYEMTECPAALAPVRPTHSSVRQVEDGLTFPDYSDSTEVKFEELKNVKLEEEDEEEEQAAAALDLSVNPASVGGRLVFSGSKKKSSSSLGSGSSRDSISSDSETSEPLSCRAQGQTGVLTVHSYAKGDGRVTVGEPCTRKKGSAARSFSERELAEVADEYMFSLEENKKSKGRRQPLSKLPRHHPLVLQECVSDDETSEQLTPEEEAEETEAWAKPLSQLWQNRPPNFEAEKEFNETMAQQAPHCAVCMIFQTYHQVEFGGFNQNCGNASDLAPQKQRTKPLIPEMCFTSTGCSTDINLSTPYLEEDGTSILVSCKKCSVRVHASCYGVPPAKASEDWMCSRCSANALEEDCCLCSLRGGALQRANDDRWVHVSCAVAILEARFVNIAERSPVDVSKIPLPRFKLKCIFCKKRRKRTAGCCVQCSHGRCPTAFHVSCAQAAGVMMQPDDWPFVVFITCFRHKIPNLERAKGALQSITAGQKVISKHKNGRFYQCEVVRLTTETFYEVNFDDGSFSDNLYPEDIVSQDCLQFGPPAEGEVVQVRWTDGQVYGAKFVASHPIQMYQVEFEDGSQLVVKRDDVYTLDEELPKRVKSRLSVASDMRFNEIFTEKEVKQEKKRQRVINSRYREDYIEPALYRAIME
Sequence of Disintegrin and metalloproteinase domain-containing protein 17 (P78536 whole entry, the tested form may be a part): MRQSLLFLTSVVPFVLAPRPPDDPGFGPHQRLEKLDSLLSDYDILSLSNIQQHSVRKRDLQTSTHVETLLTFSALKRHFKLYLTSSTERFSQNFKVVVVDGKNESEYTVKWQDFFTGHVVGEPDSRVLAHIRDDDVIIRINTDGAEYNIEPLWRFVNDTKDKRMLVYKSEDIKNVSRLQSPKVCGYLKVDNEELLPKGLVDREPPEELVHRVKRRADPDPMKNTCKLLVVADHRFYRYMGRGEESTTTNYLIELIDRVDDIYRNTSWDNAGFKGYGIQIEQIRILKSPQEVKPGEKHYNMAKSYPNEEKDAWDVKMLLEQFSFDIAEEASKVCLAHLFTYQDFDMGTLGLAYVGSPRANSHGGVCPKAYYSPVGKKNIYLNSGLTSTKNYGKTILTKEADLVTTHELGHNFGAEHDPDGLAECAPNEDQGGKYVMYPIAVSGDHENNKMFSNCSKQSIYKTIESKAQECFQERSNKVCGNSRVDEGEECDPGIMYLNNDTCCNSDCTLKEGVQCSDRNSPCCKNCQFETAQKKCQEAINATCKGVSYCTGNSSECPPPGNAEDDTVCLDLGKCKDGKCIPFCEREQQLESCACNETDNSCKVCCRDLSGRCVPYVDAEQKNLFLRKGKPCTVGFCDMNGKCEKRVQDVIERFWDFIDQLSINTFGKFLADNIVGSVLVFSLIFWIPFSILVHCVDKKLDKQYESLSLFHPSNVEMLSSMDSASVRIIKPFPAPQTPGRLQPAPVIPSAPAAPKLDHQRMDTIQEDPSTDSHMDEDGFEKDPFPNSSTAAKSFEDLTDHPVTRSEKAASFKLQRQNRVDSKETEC
Sequence of Tyrosine-protein phosphatase non-receptor type 12 (Q05209 whole entry): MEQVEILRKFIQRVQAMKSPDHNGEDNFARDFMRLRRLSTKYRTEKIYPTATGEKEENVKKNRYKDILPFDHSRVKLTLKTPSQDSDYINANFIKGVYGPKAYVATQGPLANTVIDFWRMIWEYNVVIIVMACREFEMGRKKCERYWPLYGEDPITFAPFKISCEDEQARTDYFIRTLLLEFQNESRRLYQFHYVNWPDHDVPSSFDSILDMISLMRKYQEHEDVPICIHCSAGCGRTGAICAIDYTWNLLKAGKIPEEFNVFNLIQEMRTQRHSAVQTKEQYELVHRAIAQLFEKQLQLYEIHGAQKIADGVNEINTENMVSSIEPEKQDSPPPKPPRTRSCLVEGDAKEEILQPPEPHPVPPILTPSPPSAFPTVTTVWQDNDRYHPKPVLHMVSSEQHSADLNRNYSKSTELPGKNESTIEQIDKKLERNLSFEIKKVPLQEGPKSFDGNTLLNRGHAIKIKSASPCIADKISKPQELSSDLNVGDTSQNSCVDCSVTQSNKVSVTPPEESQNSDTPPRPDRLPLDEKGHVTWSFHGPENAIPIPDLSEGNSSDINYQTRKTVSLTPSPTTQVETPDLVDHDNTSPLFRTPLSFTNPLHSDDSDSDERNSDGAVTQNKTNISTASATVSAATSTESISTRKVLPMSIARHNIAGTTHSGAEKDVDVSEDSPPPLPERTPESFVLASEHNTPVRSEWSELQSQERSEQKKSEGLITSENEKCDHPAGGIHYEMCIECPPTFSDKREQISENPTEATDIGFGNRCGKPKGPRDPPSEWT
Sequence of Cytochrome P450 3A4 (P08684 whole entry): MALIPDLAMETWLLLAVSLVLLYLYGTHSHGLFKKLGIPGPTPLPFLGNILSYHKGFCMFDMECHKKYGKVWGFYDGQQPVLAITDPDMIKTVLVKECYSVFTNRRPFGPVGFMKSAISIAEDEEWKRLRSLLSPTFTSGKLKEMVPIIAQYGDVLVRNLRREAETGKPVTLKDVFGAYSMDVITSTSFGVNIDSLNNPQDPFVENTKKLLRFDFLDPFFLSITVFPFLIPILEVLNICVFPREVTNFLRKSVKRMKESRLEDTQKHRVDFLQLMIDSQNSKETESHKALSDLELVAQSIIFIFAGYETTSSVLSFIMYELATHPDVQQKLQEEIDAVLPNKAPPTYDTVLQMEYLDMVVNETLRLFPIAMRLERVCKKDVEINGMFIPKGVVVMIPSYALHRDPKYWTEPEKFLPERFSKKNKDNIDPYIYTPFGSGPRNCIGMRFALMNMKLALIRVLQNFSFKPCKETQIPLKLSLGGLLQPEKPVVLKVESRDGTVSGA
Sequence of G-protein coupled receptor 55 (Q9Y2T6 whole entry): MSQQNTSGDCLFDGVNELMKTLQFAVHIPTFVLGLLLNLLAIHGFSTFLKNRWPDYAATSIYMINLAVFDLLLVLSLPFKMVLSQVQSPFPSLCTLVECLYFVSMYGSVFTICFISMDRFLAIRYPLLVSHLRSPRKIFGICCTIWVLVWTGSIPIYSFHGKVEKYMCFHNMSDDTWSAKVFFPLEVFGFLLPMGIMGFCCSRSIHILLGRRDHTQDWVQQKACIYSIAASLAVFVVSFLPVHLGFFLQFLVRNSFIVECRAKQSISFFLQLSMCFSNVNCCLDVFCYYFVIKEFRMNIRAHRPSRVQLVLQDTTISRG

O=C(Nc1ccc(S(=O)(=O)N2CCOCC2)cc1)c1ccc(CN2CCc3ccccc3C2)cc1
IC50 [1]: 3.77 µM (active) | IC50 (Tumor necrosis factor [2]): 0.627 µM (active) | IC50 [3]: 0.347 µM (active) | IC50 [4]: > 80 µM (inactive) | AC50 (Cytochrome P450 3A4): inconclusive | IC50 (HEK293 [5]): 5.46 µM (active)

NC(=O)[C@@H]1CC2(CC(c3cccc(NC(=O)CC(c4ccccc4)c4ccccc4)c3)=NO2)CN1C(=O)c1ccc(Cl)cc1 (stereo partly drawn)
EC50 [6]: 0.619 µM (active) | EC50 [7]: > 60 µM (not active) | AC50 (CAAX prenyl protease 1): 5.27 µM (active) | AC50 (CAAX prenyl protease 2): 41.7 µM (active) | IC50 [8]: > 7.72 µM (active) | IC50 [9]: > 69.5 µM (inactive)

CCc1ccc(/C=C2\SC(=S)N(CCCC(=O)Nc3ccc(C(=O)O)cc3)C2=O)cc1
IC50 [10]: < 0.5 µM (active) | EC50 [11]: 0.248 µM (active) | IC50 [12]: 0.636 µM (active) | EC50 [13]: 7.29 µM (active) | EC50 [14]: 7.61 µM (active) | EC50 [15]: 3.67 µM (active) | EC50 (Streptokinase A): > 150 µM (not active) | EC50 (Streptococcus): > 150 µM (not active) | IC50 [16]: 9.28 µM (active) | IC50 [17]: 76.8 µM (active) | IC50 [18]: 0.581 µM (active) | IC50 [19]: 17.3 µM (inactive)

CC[C@@]1([N+](=O)[O-])C[C@H]2C=C[C@@H]1C2.CC[C@@]1([N+](=O)[O-])C[C@H]2C=C[C@@H]1C2
AC50 (Cytochrome P450 2C19): inconclusive | AC50 (Cytochrome P450 2D6): inconclusive

Nc1nc2ccccc2n1S(=O)(=O)c1ccc(Cl)c(Cl)c1
IC50 [20]: 0.529 µM (active) | IC50 (Tumor necrosis factor [21]): > 20 µM (inactive) | IC50 (HEK293 [22]): > 20 µM (inactive) | IC50 [23]: > 20 µM (inactive)

Cc1ccc(S(=O)(=O)Nc2ccc3c(c2)CC(=O)N([C@H](C)CO)C[C@@H](C)[C@H](CN(C)S(=O)(=O)c2ccccc2)O3)cc1
AC50 [24]: > 60 µM (inactive)

COc1cc(F)cc(-c2ccc3c(c2)c(-c2cccs2)c(-c2cc(OC)cc(OC)c2)n3C)c1
AC50 [25]: 16.5 µM (active) | AC50 [26]: 26.5 µM (active)
